Results reported in patent EP1118615A1, “NOVEL SALTS OF PYRIDOPYRAZINE COMPOUND AND CRYSTALS THEREOF” (FUJISAWA PHARMACEUTICAL CO., LTD., priority 1998, dated 2000).

Columns and labels:
human PDE4-B1 isoform = biological target: T1, human PDE4-B1 isoform (Homo sapiens, UniProt Q07343); experiment: (A1) PDE-IV inhibitory activity, crude enzyme from CHO cells expressing the cDNA; type: biochemical
T1 construct: made in house; host or cells: CHO cells
Protocol: (A1) PDE-IV inhibitory activity [Method] A crude enzyme was prepared from the cells (CHO cells) to which the cDNA for human PDE4-B1 isoform had been introduced for expression of the protein and the PDE4 inhibitory activity of the compound (I) of this invention was determined.

TNF α = experiment: (A3) Anti-CD3/CD28 antibody-stimulated cytokine production inhibitory activity in PBMC, ELISA: TNF α; type: cell-based; settings: Homo sapiens, anti-CD3 and anti-CD28 antibodies, 24-hr culture supernatant
Protocol: (§1) (A3) Anti-CD3/CD28 antibody-stimulated TNF α production inhibitory activity in human peripheral blood monocytes (PBMC)
(§2) [Method] Monocytes isolated from healthy adult male volunteers were cultured and stimulated with anti-CD3 and anti-CD28 antibodies and the amounts of TNF, INF, 1L-2, IL-4 and IL-10 in the 24-hr culture supernatant were determined by ELISA.

[1] = (A3) Anti-CD3/CD28 antibody-stimulated cytokine production inhibitory activity in PBMC, ELISA: TNF γ; type: cell-based; settings: Homo sapiens, anti-CD3 and anti-CD28 antibodies, 24-hr culture supernatant
Protocol: as §1, §2

IL-4 = experiment: (A3) Anti-CD3/CD28 antibody-stimulated cytokine production inhibitory activity in PBMC, ELISA: IL-4; type: cell-based; settings: Homo sapiens, anti-CD3 and anti-CD28 antibodies, 24-hr culture supernatant
Protocol: as §1, §2

IL-10 = experiment: (A3) Anti-CD3/CD28 antibody-stimulated cytokine production inhibitory activity in PBMC, ELISA: IL-10; type: cell-based; settings: Homo sapiens, anti-CD3 and anti-CD28 antibodies, 24-hr culture supernatant
Protocol: as §1, §2

[2] = system: DGalN/LPS-induced rat hepatitis model; experiment: (B1) DGalN/LPS-induced rat hepatitis model; type: in vivo, Wistar rats; settings: oral, 24 hr after DGalN/LPS
Protocol: (B1) DGalN/LPS-induced rat hepatitis model
[Method] Male Wistar rats aged 12 weeks were deprived of food for 24 hours and dosed orally with the drug or the solvent vehicle in predetermined doses. Immediately thereafter, saline was administered from the tail vein to the NORMAL group and D-galactosamine hydrochloride (DGalN) (300 mg/kg)/LPS (0.32 µg/kg) was administered similarly to the CONTROL and DRUG groups. At 24 hr after administration of DGaIN/LAS, the blood was drawn and the liver isolated. Using the blood, liver-derived enzymes (ALT and AST) in plasma were assayed. The liver was fixed in formalin and phathological specimens were prepared. Histopathological findings (inflammatory cell infiltration and liver cell necrosis) were evaluated.

[3] = system: DGalN-induced rat hepatitis model; experiment: (B2) DGalN-induced rat hepatitis model; type: in vivo, Wistar rats; settings: oral, 24 hours after DGalN
Protocol: (B2) DGalN-induced rat hepatitis model
[Method] Male Wistar rats aged 12 weeks were deprived of food for 24 hours and dosed orally with the drug or the solvent vehicle in predetermined doses. Immediately thereafter, saline was administered intraperitoneally to the NORMAL group and D-galactosamine hydrochloride (DGalN), 400 mg/kg, was administered similarly to the CONTROL and DRUG groups. At 24 hours after administration of DGalN, the blood was drawn and the liver isolated. Using the blood, the liver-derived en zymes (ALT, AST) in plasma were assayed. The liver was fixed in formalin and pathological specimens were prepared. Histopathological findings (inflammatory cell infiltration and liver cell necrosis) were evaluated.

[4] = system: LEC rat spontaneous hepatitis model; experiment: (B5) LEC rat spontaneous hepatitis model; type: in vivo, Long Evans Cinnamon (LEC) rats; settings: oral once daily for 23 consecutive weeks
Protocol: (B5) LEC rat spontaneous hepatitis model
Long Evans Cinnamon (LEC) rats are known to spontaneously develop acute hepatitis with jaundice as a cardinal sign and 50~70% of them experience a fulminating stage and die. It is also known that almost all surviving animals run a clinical course of acute hepatitis-chronic hepatitis-biliary fibrosis (cirrhosis)-hepatocarcinoma.
[Method] To 9-week-old male LEC rats, either the drug or the solvent vehicle was administered orally in predetermined doses once daily for 23 consecutive weeks. On the day following the last dosing day, the blood was drawn and the liver isolated. Using the blood, the liver-derived enzymes (ALT, AST) in plasma were assayed. The liver was fixed in formalin and pathological specimens were prepared. Histopathological findings (inflammatory cell infiltration, biliary hyperplasia and liver cell necrosis) were evaluated.

[5] = system: Guinea-pig model of delayed asthma; experiment: (B6) Guinea-pig model of delayed asthma; type: in vivo, Hartley guinea pigs; settings: oral 1 hour before exposure to the antigen; 4~8 hours after exposure
Protocol: (B6) Guinea-pig model of delayed asthma
[Method] Male Hartley guinea pigs were sensitized intraperitoneally with ovalbumin/Freund's complete adjuvant. On day 23 after immunization, the animals were caused to inhale a mist of ovalbumin solution from a sonic nebulizer for 3 minutes to elicit an asthmatic response. The drug was administered orally 1 hour before exposure to the antigen. The special airway resistance (sRaw) after exposure to the antigen was measured and the case in which the sRaw value had increased two-fold or more from the pre-exposure baseline in 4~8 hours was regarded as a case of delayed asthma.

[6] = system: Arachidonic acid-induced ear edema model; experiment: (B7) Atopy, Method 1: arachidonic acid-induced ear edema model; type: in vivo, Balb/c mice; settings: oral 30 minutes before arachidonic acid; auricle thickness after 1 hour
Protocol: [Method 1] Arachidonic acid-induced ear edema model:
To the left auricle of Balb/c mice, 2 mg/ear of arachidonic acid was applied to induce a skin inflammation. After 1 hour, the thickness of the auricle was measured with a peacock dial thickness gage and used as an indicator of skin inflammation. The drug was administered orally 30 minutes before application of arachidonic acid.

Stability in solid state = type: physicochemical; parameters: Water content: unit not given here
Source text: The crystallinity of hydrochloride was decreased when it was mixed with ethanol.
(§3) In the study on polymorphism of compound (I), six kinds of polymorphs (A01, A09, A16, A20, A30 and A43 crystals) were found. For each of those polymorphs, hygroscopicity, stability in solid state, solubility and changes in crystallinity on compounding with various solvents were studied. However, the A30 crystal was not studied since it contains ethanol.
(2) Stability in solid state

Hygroscopicity = type: physicochemical
Source text: as §3

T1 sequence (Q07343 whole entry, canonical isoform): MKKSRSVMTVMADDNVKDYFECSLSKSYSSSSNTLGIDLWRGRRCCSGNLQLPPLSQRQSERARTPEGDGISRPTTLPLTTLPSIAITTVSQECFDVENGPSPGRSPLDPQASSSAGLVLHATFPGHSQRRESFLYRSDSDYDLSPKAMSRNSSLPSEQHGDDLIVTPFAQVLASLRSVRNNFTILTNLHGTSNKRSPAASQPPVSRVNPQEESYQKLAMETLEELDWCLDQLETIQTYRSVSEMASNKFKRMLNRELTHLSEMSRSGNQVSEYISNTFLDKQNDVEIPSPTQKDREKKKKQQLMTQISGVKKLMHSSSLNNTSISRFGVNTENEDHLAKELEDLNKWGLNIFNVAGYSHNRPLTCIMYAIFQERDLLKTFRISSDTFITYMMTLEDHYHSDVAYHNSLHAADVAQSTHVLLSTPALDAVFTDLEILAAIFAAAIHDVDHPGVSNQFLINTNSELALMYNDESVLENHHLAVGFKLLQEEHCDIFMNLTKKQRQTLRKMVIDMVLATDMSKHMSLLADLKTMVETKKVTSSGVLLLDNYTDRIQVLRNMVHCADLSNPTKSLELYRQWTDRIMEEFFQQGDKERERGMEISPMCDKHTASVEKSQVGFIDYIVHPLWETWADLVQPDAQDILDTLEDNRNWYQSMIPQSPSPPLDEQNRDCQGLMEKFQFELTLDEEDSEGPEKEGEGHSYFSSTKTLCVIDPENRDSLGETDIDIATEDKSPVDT

## CS(=O)(=O)O.O.O.O=C(Nc1cccc(-n2c(=O)c(Cc3cccnc3)nc3cccnc32)c1)c1cc(Cl)cc(Cl)c1 [Example 2, 4-(3-(3,5-dichlorobenzoylamino)phenyl)-2-(3-pyridyl)methyl-3-oxo-3,4-dihydropyrido[2,3-b]pyrazine methanesulfonate dihydrate]
Human PDE4-B1 isoform
  IC50: 26 nM
TNF α
  IC50: 44.5 nM
[1]
  IC50: 57.3 nM
IL-4
  IC50: 155 nM
IL-10
  IC50: 59.7 nM
[2]
  elevation of blood ALT: significantly inhibited
  elevation of blood AST: significantly inhibited
[2]; histopathology
  inflammatory cell infiltration: inhibited
  liver cell necrosis: inhibited
[3]
  elevation of blood ALT: significantly inhibited
  elevation of blood AST: significantly inhibited
[3]; histopathology
  inflammatory cell infiltration: inhibited
  liver cell necrosis: inhibited
[4]
  elevation of blood ALT: significantly inhibited
  elevation of blood AST: significantly inhibited
[4]; histopathology
  inflammatory cell infiltration: inhibited
  liver cell necrosis: inhibited
[5]
  delayed asthmatic response: inhibited
[6]
  ear edema: significantly inhibited
Stability in solid state; 70°C, 75% RH, 9 days
  % Residue: 101.6%
  Appearance: Pale yellowish white crystalline powder
  Crystal form: Unchanged
  Water content: 5.09
Stability in solid state; 70°C, 9 days
  % Residue: 100.3%
  Appearance: Pale yellowish white crystalline powder
  Crystal form: Unchanged
  Water content: 1.68
Stability in solid state; Initial
  % Residue: 100.0%
  Appearance: Pale yellowish white white crystalline powder
  Water content: 1.75
Stability in solid state; heat and humidity, summary of Table 3
  change in crystal form: no change
Stability in solid state; summary of Table 3
  chemical stability against heat and humidity: chemically stable
Hygroscopicity
  Hygroscopicity: less hygroscopic
